Data from article PMC8879095, “UHPLC-MS/MS Analysis of Antibiotics Transfer and Concentrations in Porcine Oral Fluid after Intramuscular Application” (Pharmaceuticals, 2022).
Read-outs that look alike come from different tables or passages of the source.

Legend:
[1] = weak organic acid; cited from earlier work
[2] = Antibiotic concentrations in porcine oral fluid after intramuscular application (UHPLC-MS/MS); format: in vivo; conditions: pigs, i.m.; for concentration at 1 d / concentration at 2 d / concentration at 3 d / concentration at 4 d / concentration at 5 d / concentration at 6 d / concentration at 7 d / concentration at 8 d / concentration at 9 d / concentration at 10 d / concentration at 11 d / concentration at 12 d / concentration at 13 d / concentration at 14 d / concentration at 15 d / concentration at 16 d / concentration at 17 d / concentration at 18 d / concentration at 19 d / concentration at 20 d / concentration at 21 d / concentration at 22 d / concentration at 23 d / concentration at 24 d / concentration at 25 d / concentration at 26 d / concentration at 27 d / concentration at 28 d / concentration at 29 d / concentration at 30 d: male, (Landrace × Yorkshire) × Duroc crossbred (DanBred sows), pig, intramuscular; for concentration at 1 d / concentration at 2 d / concentration at 3 d / concentration at 4 d / concentration at 5 d / concentration at 6 d / concentration at 7 d / concentration at 8 d / concentration at 9 d / concentration at 10 d / concentration at 11 d / concentration at 12 d / concentration at 13 d / concentration at 14 d / concentration at 15 d / concentration at 16 d / concentration at 17 d / concentration at 18 d / concentration at 19 d / concentration at 20 d / concentration at 21 d / concentration at 22 d / concentration at 23 d / concentration at 24 d / concentration at 25 d / concentration at 26 d / concentration at 27 d / concentration at 28 d / concentration at 29 d / concentration at 30 d / concentration in oral fluid at withdrawal period / Avarage Concentrations in oral fluid: oral fluid; for concentration in oral fluid at withdrawal period: at the end of the withdrawal period for tissues of each drug (Table 3); for distribution to oral fluid: conclusion in words
Experimental: All animals were born in the sow farm (8000 DanBred sows) located in Northern Poland, after crossing ♀(♂Landrace × ♀Yorskshire) × ♂Duroc. Piglets were weaned after 4 weeks of lactation with an average weight of 6 kg and then moved to the weaner stable (23,000 weaners). After the next 7 weeks, animals were transported to the 9000-places fattening farm with an average body weight of 28 kg, where the trial was performed. All farms in the aforementioned three-phase model used weekly batches and an all-in all-out system. Specialist veterinary and production management care were provided in each location.
For the purpose of the study, 240 immunologically castrated boars were divided into 8 groups, 30 animals in each pen. For the control group, 30 pigs were used in separate pens. Their initial body weight was between 40 and 60 kg. Pigs were housed at 20–25 °C. Fatteners were fed ad libitum with antimicrobial-free water and feed provided by feeders throughout the study. Before the experiment, water and feed were checked for antimicrobials, and no antimicrobial treatments were administered to these pigs before. All animals in one pen were treated due to the same health issue using disposable needles and the same drug and dosage. Pens were separated from each other with concrete walls. The drugs and dosage administered to each experimental group with an indication of withdrawal period for tissues are listed in Table 3. The oral fluid samples were collected using three cotton ropes (70 cm length with 1 cm diameter) in each pen suspended separately for 25 min on the front wall of the pen with bottoms at the pigs’ shoulder height, away from water and feed.
The research material was one pooled sample of oral fluid from 10 pigs, in triplicate, per pen. Ropes were removed immediately after collection. The first oral fluid sample was collected 24 h after the first injection. The collection of each subsequent sample took place at the same time (11:30 A.M.) for 35 consecutive days. Additionally, oral fluid samples were collected from pigs not treated with any antibiotics. Oral fluid from each pen was pooled into one 50-mL Falcon plastic tube and centrifuged at 9447× rcf for 15 min. Centrifuged material was transferred to a 15 mL plastic tube and frozen at −20 °C until analysis.
Before the analysis, the oral fluid samples were centrifuged at 9447× rcf. Next, an aliquot (1 mL) of oral fluid was placed into a 2 mL polypropylene centrifuge tube, and the 30 µL of the internal standard at the concentration of 2 µg/mL was added. For the extraction of analysed antibiotics, 600 µL of 0.5% formic acid was added, vortexed for 30 s and centrifuged for 10 min at 9447× rcf. Then, the supernatant was filtered through a […] PVDF filter into an amber glass vial before chromatographic analysis.
The mass spectrometry detection was operated in the positive ESI mode with multiple reaction monitoring (MRM).

[3] = first day of medication (abstract), read-out: concentration in oral fluid on the first day of medication
[4] = time 1 d (24 h after first injection), treatment period, read-out: Avarage Concentrations in oral fluid
[5] = treatment period, read-out: Avarage Concentrations in oral fluid
[6] = time 4 d, posttreatment, read-out: Avarage Concentrations in oral fluid
[7] = posttreatment, read-out: Avarage Concentrations in oral fluid
[8] = time 30 d, posttreatment, read-out: Avarage Concentrations in oral fluid
[9] = time 1 d (24 h after first injection), treatment period

COc1ncnc(NS(=O)(=O)c2ccc(N)cc2)c1OC [SDX, sulfadoxine]
pKa [1]: 6.16 | concentration at 1 d [2, 3]: 22300 ng/g | concentration at 1 d [2, 4]: 22300 ng/mL | concentration at 2 d [2, 5]: 5860 ± 1160 ng/mL | concentration at 3 d [2, 5]: 4570 ± 766 ng/mL | concentration at 4 d [2, 6]: 4010 ng/mL | concentration at 5 d [2, 7]: 5780 ± 788 ng/mL | concentration at 6 d [2, 7]: 4070 ± 669 ng/mL | concentration at 7 d [2, 7]: 310 ± 98 ng/mL | concentration at 8 d [2, 7]: 392 ± 88 ng/mL | concentration at 9 d [2, 7]: 386 ± 72 ng/mL | concentration at 10 d [2, 7]: 134 ± 49 ng/mL | concentration at 11 d [2, 7]: 247 ± 62 ng/mL | concentration at 12 d [2, 7]: 74.8 ± 21 ng/mL | concentration at 13 d [2, 7]: 68 ± 16 ng/mL | concentration at 14 d [2, 7]: 77.4 ± 18 ng/mL | concentration at 15 d [2, 7]: 69.8 ± 14 ng/mL | concentration at 16 d [2, 7]: 78.4 ± 12 ng/mL | concentration at 17 d [2, 7]: 47 ± 18 ng/mL | concentration at 18 d [2, 7]: 44.2 ± 16 ng/mL | concentration at 19 d [2, 7]: 58.4 ± 11 ng/mL | concentration at 20 d [2, 7]: 76.4 ± 14 ng/mL | concentration at 21 d [2, 7]: 21.4 ± 7.3 ng/mL | concentration at 22 d [2, 7]: 25.3 ± 6.9 ng/mL | concentration at 23 d [2, 7]: 15.9 ± 7.2 ng/mL | concentration at 24 d [2, 7]: 37 ± 5.4 ng/mL | concentration at 25 d [2, 7]: 31.5 ± 6.3 ng/mL | concentration at 26 d [2, 7]: 19.1 ± 4.2 ng/mL | concentration at 27 d [2, 7]: 19.3 ± 3.7 ng/mL | concentration at 28 d [2, 7]: 35 ± 8.1 ng/mL | concentration at 29 d [2, 7]: 30.4 ± 7.6 ng/mL | concentration at 30 d [2, 8]: 23 ng/mL | concentration in oral fluid at withdrawal period [2]: 247 ng/mL | Avarage Concentrations in oral fluid [2, 9]: 22,300 ± 3555 µg/L | Avarage Concentrations in oral fluid ([2]; time 4 d, posttreatment): 4010 ± 601 µg/L | Avarage Concentrations in oral fluid ([2]; time 30 d, posttreatment): 23.0 ± 6.2 µg/L | distribution to oral fluid [2]: high distribution

COc1cc(Cc2cnc(N)nc2N)cc(OC)c1OC [TRMP, trimethoprim]
concentration at 1 d [2, 3]: 14100 ng/g | concentration at 1 d [2, 4]: 14100 ng/mL | concentration at 2 d [2, 5]: 2810 ± 556 ng/mL | concentration at 3 d [2, 5]: 1810 ± 311 ng/mL | concentration at 4 d [2, 6]: 1030 ± 221 ng/mL | concentration at 5 d [2, 7]: 1400 ± 255 ng/mL | concentration at 6 d [2, 7]: 1280 ± 198 ng/mL | concentration at 7 d [2, 7]: 264 ± 73 ng/mL | concentration at 8 d [2, 7]: 125 ± 41 ng/mL | concentration at 9 d [2, 7]: 128 ± 38 ng/mL | concentration at 10 d [2, 7]: 36.4 ± 15 ng/mL | concentration at 11 d [2, 7]: 67.1 ± 20 ng/mL | concentration at 12 d [2, 7]: 25.2 ± 9.6 ng/mL | concentration at 13 d [2, 7]: 22 ± 8.7 ng/mL | concentration at 14 d [2, 7]: 22.1 ± 6.4 ng/mL | concentration at 15 d [2, 7]: 31.6 ± 11 ng/mL | concentration at 16 d [2, 7]: 24.2 ± 8.2 ng/mL | concentration at 17 d [2, 7]: 18.9 ± 4.8 ng/mL | concentration at 18 d [2, 7]: 13 ± 3.6 ng/mL | concentration at 19 d [2, 7]: 42 ± 14 ng/mL | concentration at 20 d [2, 7]: 36.4 ± 10 ng/mL | concentration at 21 d [2, 7]: 10.2 ± 4.4 ng/mL | concentration at 22 d [2, 7]: 46.4 ± 16 ng/mL | concentration at 23 d [2, 7]: 6.9 ± 2.4 ng/mL | concentration at 24 d [2, 7]: 19.4 ± 5.5 ng/mL | concentration at 25 d [2, 7]: 17.8 ± 4.1 ng/mL | concentration at 26 d [2, 7]: 15.9 ± 3.6 ng/mL | concentration at 27 d [2, 7]: 10.4 ± 2.9 ng/mL | concentration at 28 d [2, 7]: 16.5 ± 6.2 ng/mL | concentration at 29 d [2, 7]: 21.2 ± 9.4 ng/mL | concentration at 30 d [2, 8]: 22.4 ng/mL | concentration in oral fluid at withdrawal period [2]: 67.1 ng/mL | Avarage Concentrations in oral fluid [2, 9]: 14,100 ± 2556 µg/L | Avarage Concentrations in oral fluid ([2]; time 30 d, posttreatment): 22.4 ± 9.1 µg/L | distribution to oral fluid [2]: high distribution
